Reference: patent US12714688B2, “Margaric acid decreases PIEZ02-mediated pain” (The United States of America, as represented by The …, priority 2020, dated 2026)
Entries after “also recorded” stand apart in the source; their conditions may differ.

Columns and labels:
[1] = test system: mouse DRG neurons; test: Current-clamp recording of action potentials elicited by mechanical stimuli in mouse DRG neurons; type: cell-based
From the text: Subsequent sweeps had increments of 1 μm.

[2] = test system: mice; test: Hargreaves radiant heat test after daily hind paw injection; type: in vivo, mouse; conditions: MA 5 mM injected daily into hind paw for 7 days
Protocol: Mice behavior: MA solution: MA was prepared in sterile Dulbecco's phosphate buffered saline, with 70 g/L fatty acid free bovine serum albumin (BSA; Sigma), and MA to a final concentration of 5 mM. The solution was filtered to avoid undissolved materials.
Subjects: For the experiment 8-12 weeks old male and female C57B16/J mice (N=12; control n=6; male=3, female=3) MA (n=6; male=3, female=3) per experiment were used. Mice were housed under a 12 hr light dark cycle and granted access to food and water ad libitum.
Treatment: Animals were put in two groups (control and MA) and given injections in the plantar of the left hind paw for 7 days prior behavioral assessment. Injections were given as follows: Mouse is restrained by their tail, foot, and over shoulders scruff. The compound is delivered using a 3/10 cc insulin syringe into the plantar surface of the back foot of each mouse. The beveled needle is inserted at a 35-40° angle and 20-50 μl of the compound is injected subcutaneously. The needle is held in place for several seconds before being removed and the animal is returned to its home cage. […]
Thermal threshold (Hargreaves test): Animals were placed in small enclosures over a glass plate heated to 32° C. […] The latency for each rodent to withdraw the paw is recorded with three stimulus presentations administered per paw. […]

[3] = test system: human iPSC-derived neurons; test: Voltage-activated currents in human iPSC-derived neurons; type: cell-based; conditions: 300 μM vs control
From the text: Human iPSC-derived neurons: For generating human peripheral sensory neuron cultures, a version of the healthy control WTC11 iPSC line was used. This line was previously engineered to harbor a doxycycline-inducible NGN2-BRN3A construct that enables rapid and efficient sensory neuron differentiation. Undifferentiated iPSCs were maintained in E8 flex medium (invitrogen) on polystyrene plates coated with Matrigel® (Corning). The medium was exchanged every 1-3 days, and the cells were passaged every 4-7 days with Accutase® (Invitrogen) and plated overnight with 10 μM of the ROCK-inhibitor Y-27632 (Tocris). For sensory neuron differentiation, iPSCs were seeded at 20,000 cells·(cm2)−1 in neural differentiation medium (NDM) on Matrigel®-coated plates. The cells were then re-plated after 48 hours at 50,000 cells·(cm^2)^−1 onto dishes coated with polyethylenimine (Sigma-Aldrich) and laminin (Invitrogen). NDM consisted of (all from Invitrogen) 1:1 DMEM/F12 and Neurobasal™ medium supplemented with N2, B27, and GlutaMAX™ at manufacturer-recommended dilution. 2 μg·ml^−1 doxycycline (Clontech) was included in the medium for the duration of the culture, 10 μM. Y-27632 was supplemented for the first 48 hours, and the following neurotrophic factors were added from day 8 onward at 10 ng/ml each (all from R&D systems): BDNF, GDNF, β-NGF, and NT-3. […]

[4] = biological target: human PIEZO2 (Homo sapiens, UniProt Q9H5I5); test: Whole-cell patch-clamp of N2A^Piezo1−/− cells transfected with human Piezo2; conditions: 300 μM; 18 h
Chain of human PIEZO2 (Q9H5I5 whole entry): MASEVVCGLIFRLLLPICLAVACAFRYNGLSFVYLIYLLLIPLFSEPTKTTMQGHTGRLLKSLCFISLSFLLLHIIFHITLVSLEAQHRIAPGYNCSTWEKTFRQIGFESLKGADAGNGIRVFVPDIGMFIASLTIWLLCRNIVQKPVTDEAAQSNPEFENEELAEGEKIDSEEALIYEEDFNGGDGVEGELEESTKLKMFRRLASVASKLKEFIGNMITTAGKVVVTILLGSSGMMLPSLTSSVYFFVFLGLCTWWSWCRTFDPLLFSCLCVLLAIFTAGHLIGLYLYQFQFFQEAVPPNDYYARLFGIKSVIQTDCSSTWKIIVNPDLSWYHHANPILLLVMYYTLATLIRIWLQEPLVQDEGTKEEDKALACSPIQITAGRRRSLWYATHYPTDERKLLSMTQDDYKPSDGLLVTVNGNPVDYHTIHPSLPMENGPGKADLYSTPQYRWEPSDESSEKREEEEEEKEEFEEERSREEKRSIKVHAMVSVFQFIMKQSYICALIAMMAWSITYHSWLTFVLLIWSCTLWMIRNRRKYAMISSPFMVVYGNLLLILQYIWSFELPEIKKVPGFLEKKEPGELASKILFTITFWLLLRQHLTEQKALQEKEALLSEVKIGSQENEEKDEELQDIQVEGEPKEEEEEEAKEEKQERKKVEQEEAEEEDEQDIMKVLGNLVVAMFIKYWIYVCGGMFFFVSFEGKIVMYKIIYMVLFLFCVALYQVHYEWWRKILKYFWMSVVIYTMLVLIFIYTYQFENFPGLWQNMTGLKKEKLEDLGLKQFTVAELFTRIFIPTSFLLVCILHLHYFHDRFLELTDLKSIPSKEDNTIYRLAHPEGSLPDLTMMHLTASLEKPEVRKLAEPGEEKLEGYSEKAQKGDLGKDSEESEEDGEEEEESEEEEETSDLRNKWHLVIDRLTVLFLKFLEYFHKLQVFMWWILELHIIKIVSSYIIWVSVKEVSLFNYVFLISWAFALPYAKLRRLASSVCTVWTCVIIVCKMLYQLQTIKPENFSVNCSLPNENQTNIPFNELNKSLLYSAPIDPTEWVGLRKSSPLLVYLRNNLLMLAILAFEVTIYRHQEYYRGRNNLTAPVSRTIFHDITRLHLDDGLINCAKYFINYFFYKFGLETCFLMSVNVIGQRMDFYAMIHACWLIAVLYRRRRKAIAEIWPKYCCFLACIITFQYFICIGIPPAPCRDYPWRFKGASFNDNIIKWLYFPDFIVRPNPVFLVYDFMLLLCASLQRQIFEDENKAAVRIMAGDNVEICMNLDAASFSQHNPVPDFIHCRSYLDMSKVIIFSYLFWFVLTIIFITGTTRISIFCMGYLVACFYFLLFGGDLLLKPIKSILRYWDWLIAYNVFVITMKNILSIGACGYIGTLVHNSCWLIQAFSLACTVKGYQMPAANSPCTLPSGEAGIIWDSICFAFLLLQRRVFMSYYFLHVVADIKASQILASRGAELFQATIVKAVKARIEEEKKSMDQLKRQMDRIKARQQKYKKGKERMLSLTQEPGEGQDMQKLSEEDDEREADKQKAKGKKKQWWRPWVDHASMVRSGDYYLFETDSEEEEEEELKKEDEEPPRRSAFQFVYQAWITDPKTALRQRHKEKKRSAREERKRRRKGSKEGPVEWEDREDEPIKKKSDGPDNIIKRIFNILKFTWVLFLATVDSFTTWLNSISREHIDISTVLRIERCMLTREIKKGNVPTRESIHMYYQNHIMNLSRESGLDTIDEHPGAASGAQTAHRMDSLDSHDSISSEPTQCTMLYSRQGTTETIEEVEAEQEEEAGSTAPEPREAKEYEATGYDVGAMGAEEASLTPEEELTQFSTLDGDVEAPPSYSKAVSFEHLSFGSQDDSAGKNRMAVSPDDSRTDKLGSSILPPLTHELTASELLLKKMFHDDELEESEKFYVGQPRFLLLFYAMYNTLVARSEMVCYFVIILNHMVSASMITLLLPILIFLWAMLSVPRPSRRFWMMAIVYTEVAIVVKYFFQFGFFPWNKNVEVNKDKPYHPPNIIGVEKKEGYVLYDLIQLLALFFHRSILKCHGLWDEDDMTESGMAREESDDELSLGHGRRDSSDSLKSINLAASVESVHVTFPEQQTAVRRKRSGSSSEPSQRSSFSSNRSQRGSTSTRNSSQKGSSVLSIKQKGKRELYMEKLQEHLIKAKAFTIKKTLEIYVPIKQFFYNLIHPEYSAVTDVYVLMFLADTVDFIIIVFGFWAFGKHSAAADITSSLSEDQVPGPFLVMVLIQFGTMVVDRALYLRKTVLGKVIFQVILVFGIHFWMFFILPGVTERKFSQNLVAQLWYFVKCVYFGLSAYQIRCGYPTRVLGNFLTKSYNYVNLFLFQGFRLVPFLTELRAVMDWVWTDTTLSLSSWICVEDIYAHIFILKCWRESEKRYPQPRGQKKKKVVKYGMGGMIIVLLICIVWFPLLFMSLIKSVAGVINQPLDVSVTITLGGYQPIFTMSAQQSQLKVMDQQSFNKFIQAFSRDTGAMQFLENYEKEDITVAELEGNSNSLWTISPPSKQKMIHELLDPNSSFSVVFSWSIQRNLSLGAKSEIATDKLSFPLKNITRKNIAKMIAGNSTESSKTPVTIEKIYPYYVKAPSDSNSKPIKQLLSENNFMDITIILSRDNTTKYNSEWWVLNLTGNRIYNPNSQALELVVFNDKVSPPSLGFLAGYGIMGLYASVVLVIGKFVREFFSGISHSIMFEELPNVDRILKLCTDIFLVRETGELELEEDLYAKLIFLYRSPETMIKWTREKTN
Protocol: (§1) Cell culture and electrophysiology: Piezo1 knock-out mouse N2A (N2A^Piezo1−/−) cells were a gift from Dr. Gary R. Lewin, human Merkel cell carcinoma cell line (MCC13 cells; Cell Bank Australia reference number: CBA1338) were obtained from Sigma, and DRG neurons were obtained from sacrificed mice. N2A^Piezo1−/− cells were cultured in Dulbecco's Modified Eagle Medium (DMEM), 5% penicillin streptomycin and 10% fetal bovine serum (FBS); MCC13 cells were cultured in RPMI 1640 (with 2 mM L-glutamine+25 mM HEPES; Sigma), 5% penicillin-streptomycin and 10% FBS and; DRG neurons were cultured in DMEM, 1% penicillin-streptomycin, 1% MEM vitamin solution, 1% L-glutamine, and 10% horse serum. Prior to electrophysiological measurements, N2A^Piezo1−/−, MCC13 and DRG neurons were supplemented overnight (≈18 h) with MA. […] MA was obtained from Nu-Chek Prep, INC. The cultured cells were maintained at 37° C., 95% relative humidity, and 5% CO2.
For whole-cell recordings, the bath solution contained 140 mM NaCl, 6 mM KCl, 2 mM CaCl2), 1 mM MgCl2, 10 mM glucose, and 10 mM HEPES (pH 7.4; 300 mOsm). […]
(§2) During mechanical stimulation, currents were recorded at a constant voltage (−60 mV, voltage-clamp), and voltages were recorded without injecting current (current-clamp). […]

[5] = test system: PIEZO2-PIEZO1 beam chimera; test: Whole-cell patch-clamp of N2A^Piezo1−/− cells transfected with Piezo2-Piezo1 beam chimera
Protocol: as §1
For whole-cell recordings, the bath solution contained 140 mM NaCl, 6 mM KCl, 2 mM CaCl2), 1 mM MgCl2, 10 mM glucose, and 10 mM HEPES (pH 7.4; 300 mOsm). The pipette solution for voltage-clamp recordings contained: 140 mM CsCl, 5 mM EGTA, 1 mM CaCl2), 1 mM MgCl2, and 10 mM HEPES (pH 7.2); and for current clamp recordings: 140 mM KCl, 6 mM NaCl, 2 mM CaCl2), 1 mM MgCl2, 10 mM glucose, and 10 mM HEPES (pH 7.4; 300 mOsm); MA and bradykinin acetate salt (Sigma) perfused during experiments were dissolved in the bath solution to a final concentration of 300 μM for 2 min, and 1 μM for 5 min respectively; and for long exposure experiments bradykinin was supplemented to the culture medium and added to the cells 18-24 h prior recording. For cytoskeleton disruption experiments, N2A^Piezo1−/− were incubated in media supplemented with 1 μM latrunculin A (Cayman Chemicals) for 1 h prior recordings. […]
as §2

[6] = test system: rat DRG neurons; test: Current-clamp recording of action potentials elicited by mechanical stimuli in rat DRG neurons; conditions: 300 μM
Protocol: N2A^Piezo1−/− cells were cultured in Dulbecco's Modified Eagle Medium (DMEM), 5% penicillin streptomycin and 10% fetal bovine serum (FBS); MCC13 cells were cultured in RPMI 1640 (with 2 mM L-glutamine+25 mM HEPES; Sigma), 5% penicillin-streptomycin and 10% FBS and; DRG neurons were cultured in DMEM, 1% penicillin-streptomycin, 1% MEM vitamin solution, 1% L-glutamine, and 10% horse serum. […] The cultured cells were maintained at 37° C., 95% relative humidity, and 5% CO2.
For whole-cell recordings, the bath solution contained 140 mM NaCl, 6 mM KCl, 2 mM CaCl2), 1 mM MgCl2, 10 mM glucose, and 10 mM HEPES (pH 7.4; 300 mOsm). […] Pipettes were made out of borosilicate glass (Sutter Instruments) and were fire-polished before use until a resistance between 3 and 5 MΩ was reached.
During mechanical stimulation, currents were recorded at a constant voltage (−60 mV, voltage-clamp), and voltages were recorded without injecting current (current-clamp). Both variables were sampled at 100 kHz and low-pass filtered at 10 kHz using a MultiClamp™ 700 B amplifier and Clampex (Molecular Devices, LLC). To measure voltage-dependent currents, a square-pulse protocol consisting of 40-ms 20-mV incremental steps starting from −80 mV in 500-ms intervals with P/4 subtraction was used; and to record action potentials evoked by current injection, 40-ms 20-pA incremental steps were injected in 500-ms intervals. […]

In the case of `CCCCCCCCCCCCCCCCC(=O)O` [MA, heptadecanoic acid], the “action potential firing elicited by mechanical stimuli” value ([1]; 300 μM) is reported as “reduces neuronal action potential firing elicited by mechanical stimuli; also recorded: decreases action potentials elicited by mechanical stimuli; also recorded: specifically decrease action potential firing evoked by mechanical stimulation”, the “indentation steps eliciting action potentials” value ([1]; 300 μM, control 7-12 μm) is reported as 12 μm and the action potential generation ([1]; 300 μM, indentation steps smaller than 12 μm) is reported as “completely inhibits action potential generation”. The “mechanical threshold required to fire action potentials” value ([1]; MA supplementation) was “increases the mechanical threshold required for DRG neurons to fire action potentials”, the “action potentials evoked by 1 Hz mechanical stimulus trains” value ([1]; MA-enriched neurons vs control) was “evoked less action potentials than the control” and the “thermal withdrawal latencies / hyper-responsiveness to heat” value [2] was “did not affect the ability of mice to sense thermal stimuli; also recorded: has no effect on this hyper-responsiveness to heat; also recorded: had no effect on thermal withdrawal latencies”. The “voltage-activated inward Na+ and outward K+ currents” value [3] was “did not change voltage-activated inward Na+ and outward K+ currents”, the “mechano-currents of human PIEZO2” value [4] was “confirmed these results” and the “sensitivity of chimera to MA inhibition” value ([5]; 100 μM overnight, compared with PIEZO2) was “much more sensitive to MA inhibition”. The “mechanical stimulus needed to open chimera” value ([5]; MA 100 μM overnight) was “requires a higher mechanical stimulus to open” and the “action potential firing elicited by mechanical stimuli” value [6] was “reduces neuronal action potential firing elicited by mechanical stimuli”.
